# Paper PMC7368294 (Proceedings of the National Academy of Sciences of the …, 2020)
# Molecular target: T1, Amα1/Amα8/Amβ1 nAChR (Apis mellifera, UniProt A0A7M7MMZ9+A0A8U0WQ70+A0A8U0WQC0)
# T1 sequence (A0A7M7MMZ9 44-627): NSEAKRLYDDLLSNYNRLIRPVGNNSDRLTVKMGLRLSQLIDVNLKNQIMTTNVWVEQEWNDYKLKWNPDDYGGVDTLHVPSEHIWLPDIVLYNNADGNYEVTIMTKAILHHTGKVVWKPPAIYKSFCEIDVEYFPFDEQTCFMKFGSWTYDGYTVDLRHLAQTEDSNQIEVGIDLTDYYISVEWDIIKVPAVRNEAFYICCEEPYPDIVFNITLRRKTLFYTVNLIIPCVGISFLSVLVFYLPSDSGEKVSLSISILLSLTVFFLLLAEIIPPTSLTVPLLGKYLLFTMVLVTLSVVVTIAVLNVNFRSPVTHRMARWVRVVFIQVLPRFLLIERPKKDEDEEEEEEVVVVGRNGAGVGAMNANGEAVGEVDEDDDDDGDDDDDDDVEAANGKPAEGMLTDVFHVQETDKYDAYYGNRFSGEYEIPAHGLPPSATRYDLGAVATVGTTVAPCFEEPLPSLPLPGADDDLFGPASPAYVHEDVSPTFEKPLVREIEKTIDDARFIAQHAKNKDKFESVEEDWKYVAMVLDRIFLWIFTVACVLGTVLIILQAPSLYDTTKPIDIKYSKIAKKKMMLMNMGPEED
# T1 sequence (A0A8U0WQ70 25-537): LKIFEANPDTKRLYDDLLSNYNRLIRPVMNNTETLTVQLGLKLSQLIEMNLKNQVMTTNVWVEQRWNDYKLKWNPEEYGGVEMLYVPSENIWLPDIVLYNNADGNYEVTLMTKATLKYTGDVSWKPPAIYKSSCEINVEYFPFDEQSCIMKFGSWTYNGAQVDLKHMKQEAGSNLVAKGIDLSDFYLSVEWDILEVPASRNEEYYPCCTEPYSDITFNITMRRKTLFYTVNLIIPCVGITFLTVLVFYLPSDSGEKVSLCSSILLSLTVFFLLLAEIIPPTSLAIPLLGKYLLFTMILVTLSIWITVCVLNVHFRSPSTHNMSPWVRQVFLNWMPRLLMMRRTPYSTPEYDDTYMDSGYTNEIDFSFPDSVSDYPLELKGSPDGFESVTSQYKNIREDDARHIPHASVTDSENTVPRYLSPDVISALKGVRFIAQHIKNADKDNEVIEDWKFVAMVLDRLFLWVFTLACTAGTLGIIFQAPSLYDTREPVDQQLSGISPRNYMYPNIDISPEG
# T1 sequence (A0A8U0WQC0 25-520): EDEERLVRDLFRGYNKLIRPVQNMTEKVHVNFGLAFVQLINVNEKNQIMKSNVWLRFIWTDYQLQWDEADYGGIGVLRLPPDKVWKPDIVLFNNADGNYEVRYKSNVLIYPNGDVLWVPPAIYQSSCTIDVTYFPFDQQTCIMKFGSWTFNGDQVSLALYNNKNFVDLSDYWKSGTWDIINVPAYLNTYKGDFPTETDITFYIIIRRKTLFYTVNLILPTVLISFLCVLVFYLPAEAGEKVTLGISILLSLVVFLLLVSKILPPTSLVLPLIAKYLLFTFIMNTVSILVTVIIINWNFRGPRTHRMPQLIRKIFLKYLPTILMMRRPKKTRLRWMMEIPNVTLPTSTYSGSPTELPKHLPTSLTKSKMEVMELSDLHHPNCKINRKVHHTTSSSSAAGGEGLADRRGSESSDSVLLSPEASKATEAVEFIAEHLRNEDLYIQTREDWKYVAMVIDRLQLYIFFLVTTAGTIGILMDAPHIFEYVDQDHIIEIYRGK
# Assay: two-electrode voltage clamp of Xenopus oocytes, agonist concentration-response
# Format: cell-based
row,Structure (SMILES),EC50
1,N#C/N=C1\SCCN1Cc1ccc(Cl)nc1 [thiacloprid],11.5 nM
2,CN/C(=N\[N+](=O)[O-])NCc1cnc(Cl)s1 [clothianidin],11 nM
3,O=[N+]([O-])NC1=NCCN1Cc1ccc(Cl)nc1 [imidacloprid],23.4 nM
